Experimental findings from BindingDB's records for doi:10.1016/j.bmcl.2012.03.007 (Bristol-Myers Squibb, 2012) are described below.

For orientation: IC50 means the concentration at which inhibition is half-maximal.

Test [1] can be described thus: Antagonist activity at CCR2 in human PBMC assessed as inhibition of MCP1-induced chemotaxis.
Test [2] in a line: Antagonist activity at CCR2 in mouse monocytes assessed as inhibition of MCP1-induced chemotaxis.

For `CCC[C@H](O)[C@H](CNCc1ccc(C)cc1C)NC(=O)CNC(=O)c1cc(N)cc(C(F)(F)F)c1`, the IC50 in test [1] worked out at 20 nM.

`CCC[C@H](O)[C@H](CNCc1ccc(C)cc1C)NC(=O)CNC(=O)c1cc(C(F)(F)F)ccc1N`: in test [1], the IC50 came to 32 nM. Same read-out and setting: in the case of `CCC[C@H](O)[C@H](CNCc1ccc(C)cc1C)NC(=O)CNC(=O)c1cc(C(F)(F)F)ccc1NC(=O)OC(C)(C)C` it was 17 nM; in that of `CCC[C@H](O)[C@H](CNCc1ccc(C)cc1C)NC(=O)CNC(=O)c1cc(C(F)(F)F)ccc1NC(=O)NC`, 5 nM. `CCC[C@H](O)[C@H](CNCc1ccc(C)cc1C)NC(=O)CNC(=O)c1cc(C(F)(F)F)ccc1NC(=O)NCC`: the 50% inhibitory concentration (IC50) in test [1] is 24 nM; in test [2], 4 nM. On to `CCC[C@H](O)[C@H](CNCc1ccc(C)cc1C)NC(=O)CNC(=O)c1cc(C(F)(F)F)ccc1NC(=O)N1CCC1`, for which, in test [1], the IC50 stood at 4.3 nM.

On to `CCC[C@H](O)[C@H](CNCc1ccc(C)cc1C)NC(=O)CNC(=O)c1cc(C(F)(F)F)ccc1NC(=O)N1CCCC1`, for which, in test [1], the IC50 stood at 5.2 nM. On the same count and under the same terms, the result for `CCC[C@H](O)[C@H](CNCc1ccc(C)cc1C)NC(=O)CNC(=O)c1cc(C(F)(F)F)ccc1NC(=O)N1CCOCC1` reads 13 nM. With `CCC[C@H](O)[C@H](CNCc1ccc(C)cc1C)NC(=O)CNC(=O)c1cc(C(F)(F)F)ccc1NC(=O)N1CCNCC1`, the IC50 in test [1] was found to be 10 nM.

`CCC[C@H](O)[C@H](CNCc1ccc(C)cc1C)NC(=O)CNC(=O)c1cc(C(F)(F)F)ccc1NC(C)C`: the IC50 in test [1] worked out at 9 nM. Same read-out and setting: the result for `CCC[C@H](O)[C@H](CNCc1ccc(C)cc1C)NC(=O)CNC(=O)c1cc(C(F)(F)F)ccc1NC(C)(C)C` reads 33 nM; that for `CCC[C@H](O)[C@H](CNCc1ccc(C)cc1C)NC(=O)CNC(=O)c1cc(C(F)(F)F)ccc1NCc1ccccc1`, 7.2 nM; that for `CCC[C@H](O)[C@H](CNCc1ccc(C)cc1C)NC(=O)CNc1n[nH]c2ccc(C(F)(F)F)cc12`, 74 nM. On the same count and under the same terms, the result for `CCC[C@H](O)[C@H](CNCc1ccc(C)cc1C)NC(=O)CC(=O)Nc1cccc(C(F)(F)F)c1` reads 81 nM.

Turning to `CCC[C@H](O)[C@H](CNCc1ccc(C)cc1C)NC(=O)CC(=O)Nc1cc(N)cc(C(F)(F)F)c1`, the IC50 in test [1] is 14 nM.

`CCC[C@H](O)[C@H](CNCc1ccc(C)cc1C)NC(=O)CC(=O)Nc1cc(NC)cc(C(F)(F)F)c1`: in test [1], the IC50 was found to be 23 nM. Regarding `CCC[C@H](O)[C@H](CNCc1ccc(C)cc1C)NC(=O)CC(=O)Nc1cc(NCC)cc(C(F)(F)F)c1`, in test [1], the IC50 was 12 nM.
